Structures can show the parent of a compound that is named as a salt. Where two headings read alike, the source gives them in different places.
What was measured:
[1] = in vitro; details: human
[2] = system: HBV; details: read-out: Cell Activity (EC50)
[3] = system: HepAD38 cells; assay: Cell viability assay (AlamarBlue cytotoxicity); details: HepAD38 cells in the presence of 0.3 μg/ml tetracycline, six days incubation
[4] = Hepatitis B virus, HePAD38, 144 h

Compound | EC50 [2, 4] | also measured
O=C(Nc1cc2n(n1)CCN(C(=O)c1cc3ccccc3[nH]1)C2)C1CC2CC1CN2 (stereo not shown) [Example 82, N-[5-(1H-indole-2-carbonyl)-4H,5H,6H,7H-pyrazolo[1,5-a]pyrazin-2-yl]-2-azabicyclo[2.2.1]heptane-5-carboxamide dihydrochloride] | 1000 to 10000 nM | CC50 [1]: > 10000 nM
3-yl)methyl]-4H,5H, 6H,7H-pyrazolo[1,5-a]pyrazin-2-amine [Example 25] | – | CC50 [3]: > 10000 nM; EC50 ([2]; HBV DNA in HepAD38 supernatant at day 6, qPCR): < 1000 nM
CC1(S(=O)(=O)Nc2cc3n(n2)CCN(C(=O)c2cc4ccccc4[nH]2)C3)CC1 [Example 44, N-[5-(1H-indole-2-carbonyl)-4H,5H,6H,7H-pyrazolo[1,5-a]pyrazin-2-yl]-1-methylcyclopropane-1-sulfonamide] | < 1000 nM | CC50 [1]: > 10000 nM
O=C(Nc1cc2n(n1)CCN(C(=O)c1cc3ccccc3[nH]1)C2)[C@H]1CCNC[C@@H]1F [Example 86, (3R,4R)-3-fluoro-N-[5-(1H-indole-2-carbonyl)-4H,5H,6H,7H-pyrazolo[1,5-a]pyrazin-2-yl]piperidine-4-carboxamide dihydrochloride] | < 1000 nM | CC50 [1]: > 10000 nM
Nc1cc2n(n1)CCN(C(=O)c1cc3c(F)cc(F)cc3[nH]1)C2 [Example 33, 5-(4,6-difluoro-1H-indole-2-carbonyl)-4H,5H,6H,7H-pyrazolo[1,5-a]pyrazin-2-amine] | < 1000 nM | –
O=C(c1cc2c(Cl)cccc2[nH]1)N1CCn2nc(NC3CCC(O)CC3)cc2C1 (stereo not shown) [Example 3, 4-{[5-(4-chloro-1H-indole-2-carbonyl)-4H,5H,6H,7H-pyrazolo[1,5-a]pyrazin-2-yl]amino}cyclohexan-1-ol] | < 1000 nM | –
CC(C)(CO)CNc1cc2n(n1)CCN(C(=O)c1cc3ccccc3[nH]1)C2 [Example 59, 3-{[5-(1H-indole-2-carbonyl)-4H,5H,6H,7H-pyrazolo[1,5-a]pyrazin-2-yl]amino}-2,2-dimethylpropan-1-ol] | < 1000 nM | –
Cn1cc(S(=O)(=O)Nc2cc3n(n2)CCN(C(=O)c2cc4ccccc4[nH]2)C3)cn1 [Example 49, N-[5-(1H-indole-2-carbonyl)-4H,5H,6H,7H-pyrazolo[1,5-a]pyrazin-2-yl]-1-methyl-1H-pyrazole-4-sulfonamide] | < 1000 nM | –
O=C(c1cc2ccccc2[nH]1)N1CCn2nc(NCC3(CO)CCC3)cc2C1 [Example 79, [1-({[5-(1H-indole-2-carbonyl)-4H,5H,6H,7H-pyrazolo[1,5-a]pyrazin-2-yl]amino}methyl)cyclobutyl]methanol] | < 1000 nM | –
O=C(Nc1cc2n(n1)CCN(C(=O)c1cc3ccccc3[nH]1)C2)C1CCNC(C(F)(F)F)C1 (stereo not shown) [Example 61, N-[5-(1H-indole-2-carbonyl)-4H,5H,6H,7H-pyrazolo[1,5-a]pyrazin-2-yl]-2-(trifluoromethyl)piperidine-4-carboxamide] | < 1000 nM | –
CS(=O)(=O)Nc1cc2n(n1)CCN(C(=O)c1cc3ccccc3[nH]1)C2 [Example 8, N-[5-(1H-indole-2-carbonyl)-4H,5H,6H,7H-pyrazolo[1,5-a]pyrazin-2-yl]methanesulfonamide] | < 1000 nM | –
O=C(c1cc2c(Cl)cccc2[nH]1)N1CCn2nc(NCC3CCOC3)cc2C1 (stereo not shown) [Example 26, 5-(4-chloro-1H-indole-2-carbonyl)-N-[(oxolan-3-yl)methyl]-4H,5H,6H,7H-pyrazolo[1,5-a]pyrazin-2-amine] | < 1000 nM | –
CCc1cc(F)cc2[nH]c(C(=O)N3CCn4nc(NCC5CCOC5)cc4C3)cc12 (stereo not shown) [Example 29, 5-(4-ethyl-6-fluoro-1H-indole-2-carbonyl)-N-[(oxolan-3-yl)methyl]-4H,5H,6H,7H-pyrazolo[1,5-a]pyrazin-2-amine] | < 1000 nM | CC50 [1]: > 10000 nM
O=C(c1cc2ccccc2[nH]1)N1CCn2nc(NC3(CO)CCC3)cc2C1 [Example 90, (1-{[5-(1H-indole-2-carbonyl)-4H,5H,6H,7H-pyrazolo[1,5-a]pyrazin-2-yl]amino}cyclobutyl)methanol] | < 1000 nM | –
O=C(c1cc2ccccc2[nH]1)N1CCn2nc(NCc3ccccc3)cc2C1 [Example 56, N-benzyl-5-(1H-indole-2-carbonyl)-4H,5H,6H,7H-pyrazolo[1,5-a]pyrazin-2-amine] | 1000 to 10000 nM | –
O=C(Nc1cc2n(n1)CCN(C(=O)c1cc3ccccc3[nH]1)C2)C1CNC1 [Example 4, N-[5-(1H-indole-2-carbonyl)-4H,5H,6H,7H-pyrazolo[1,5-a]pyrazin-2-yl]azetidine-3-carboxamide Hydrochloride] | 1000 to 10000 nM | –
COCC1(CNc2cc3n(n2)CCN(C(=O)c2cc4ccccc4[nH]2)C3)CC1 [Example 54, 5-(1H-indole-2-carbonyl)-N-{[1-(methoxymethyl)cyclopropyl]methyl}-4H,5H,6H,7H-pyrazolo[1,5-a]pyrazin-2-amine] | < 1000 nM | –
CN1CC[C@H](C(=O)Nc2cc3n(n2)CCN(C(=O)c2cc4ccccc4[nH]2)C3)[C@@H](F)C1 [Example 89, (3R,4R)-3-fluoro-N-[5-(1H-indole-2-carbonyl)-4H,5H,6H,7H-pyrazolo[1,5-a]pyrazin-2-yl]-1-methylpiperidine-4-carboxamide] | < 1000 nM | –
O=C(Nc1cc2n(n1)CCN(C(=O)c1cc3ccccc3[nH]1)C2)C1CCN(c2ccncc2)CC1 [Example 57, N-[5-(1H-indole-2-carbonyl)-4H,5H,6H,7H-pyrazolo[1,5-a]pyrazin-2-yl]-1-(pyridin-4-yl)piperidine-4-carboxamide] | < 1000 nM | –
COC1(CNc2cc3n(n2)CCN(C(=O)c2cc4ccccc4[nH]2)C3)CCC1 [Example 60, 5-(1H-indole-2-carbonyl)-N-[(1-methoxycyclobutyl)methyl]-4H,5H,6H,7H-pyrazolo[1,5-a]pyrazin-2-amine] | < 1000 nM | –
